Measurements from paper PMC5575254, “An allosteric ligand-binding site in the extracellular cap of K2P channels” (Nature Communications, 2017).

How the values were obtained:
K2P channels = test system: K2P channels; parameters: method as in PMID 9628867, PMID 8605869; conditions: ref [26], [27]; cited from earlier work
TRAAK = target: T1, TRAAK (Homo sapiens, UniProt Q9NYG8); test: Whole-cell voltage clamp of CHO cells expressing TRAAK; type: cell-based; conditions: for IC50: whole-cell, CHO cells, WT TRAAK, mean ± s.e.m
T1 construct: expressed in transfected cells; host or cells: CHO cells, transient transfection
T1 sequence (Q9NYG8 1-393): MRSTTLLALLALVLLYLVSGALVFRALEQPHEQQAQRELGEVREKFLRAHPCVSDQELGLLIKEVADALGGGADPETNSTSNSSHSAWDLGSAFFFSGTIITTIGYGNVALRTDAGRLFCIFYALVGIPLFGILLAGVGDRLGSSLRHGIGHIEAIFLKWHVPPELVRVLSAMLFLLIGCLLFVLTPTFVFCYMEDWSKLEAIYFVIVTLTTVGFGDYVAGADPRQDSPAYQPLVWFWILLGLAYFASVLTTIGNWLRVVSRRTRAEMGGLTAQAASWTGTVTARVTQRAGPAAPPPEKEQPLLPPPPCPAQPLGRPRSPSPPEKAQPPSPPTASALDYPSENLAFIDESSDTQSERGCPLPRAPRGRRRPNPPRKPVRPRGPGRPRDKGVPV
Source text: (§1) cDNA of the human TREK-1, TREK-2 and TRAAK channels were subcloned into the pEGFPN1 expression vector (Invitrogen), respectively. Mutations were introduced into TREK-1 or TRAAK by PCR using the QuickChange XL sitedirected mutagenesis kit (Agilent Technologies) and were subsequently confirmed by DNA sequencing.
(§2) Chinese hamster ovary (CHO) cells were provided by the Cell Bank of Chinese Academy of Sciences (Shanghai, China). CHO cells were maintained in DMEM/F12 (Gibco) supplemented with 10% fetal bovine serum (Gibco) and 100 μg ml^−1 penicillin-streptomycin (Cellgro) in a humidified incubator at 37 °C (5% CO2). For electrophysiology experiments, cells plated in 35 mm tissue culture dishes (Corning Incorporated) were transiently transfected with the plasmids using PolyJet™ reagent (SignaGen) according to the manufacturer’s instructions. Primers used in this study are listed in Supplementary Table 4.
(§3) All electrophysiological recordings were obtained using patch-clamp recordings in two different configurations: (1) whole cell for macroscopic current dose–response curves; and (2) outside-out and inside-out for macroscopic currents recordings.
(§4) All patch-clamp recordings were conducted 36–96 h after transfection with an Axopatch-200B amplifier (Molecular Devices) at room temperature (23–25 °C). The microelectrodes fashioned from 1.5 mm thin-walled borosilicate glass with filament were pulled from Flaming/Brown type micropipette puller (P-97; SUTTER INSTRUMENT) with the resistances of 3–7 MΩ (whole cell) or 7–15 MΩ (outside-out) when filled with a solution containing (in mM): 140 KCl, 2 MgCl2, 10 EGTA, 1 CaCl2, 10 HEPES (pH 7.3, adjusted with KOH). External solution contained (in mM): 150 NaCl, 5 KCl, 0.5 CaCl2, 1.2 MgCl2, 10 HEPES (pH 7.3, adjusted with NaOH). The current signals were filtered at 1 kHz and digitized at a 10 kHz sampling frequency by using DigiData 1440 A.
(§5) Data of whole-cell voltage clamp experiments were fitted using doseResp function. The half inhibition concentrations were derived from fits of the dose–response curves to the function:1 I/I0=A1+A2-A1/1+10^logx0-xP, where I 0 and I are current amplitudes before and after application of inhibitors; A 1 and A 2 are constants between 0 and 1; x is the concentration of inhibitor; x o is the concentration when 50% inhibition was reached (IC50), P is the Hill constant.

TREK-2 [1] = target: T2, TREK-2 (Homo sapiens, UniProt P57789); test: Whole-cell voltage clamp of CHO cells expressing TREK-2; type: cell-based; conditions: mean ± s.e.m
T2 construct: expressed in transfected cells; host or cells: CHO cells, transient transfection
T2 sequence (P57789 1-538): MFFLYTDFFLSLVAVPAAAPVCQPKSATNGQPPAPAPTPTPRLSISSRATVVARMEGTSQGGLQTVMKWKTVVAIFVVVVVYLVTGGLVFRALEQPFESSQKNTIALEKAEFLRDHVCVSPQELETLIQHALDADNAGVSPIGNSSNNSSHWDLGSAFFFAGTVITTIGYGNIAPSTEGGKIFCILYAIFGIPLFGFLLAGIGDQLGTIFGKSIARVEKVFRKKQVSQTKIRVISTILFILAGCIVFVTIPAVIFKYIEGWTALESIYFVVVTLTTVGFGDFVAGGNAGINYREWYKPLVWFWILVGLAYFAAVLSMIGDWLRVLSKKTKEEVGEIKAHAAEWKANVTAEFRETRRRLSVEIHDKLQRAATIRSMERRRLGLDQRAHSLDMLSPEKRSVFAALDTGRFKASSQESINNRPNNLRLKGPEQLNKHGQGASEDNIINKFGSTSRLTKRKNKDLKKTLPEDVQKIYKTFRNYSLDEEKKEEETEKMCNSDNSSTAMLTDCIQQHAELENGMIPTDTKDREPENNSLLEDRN
Source text: as §1, §2, §3, §4, §5

TREK-1 channel = target: T3, TREK-1 channel (Homo sapiens, UniProt O95069); test: Whole-cell voltage clamp of CHO cells transiently transfected with TREK-1; type: cell-based; conditions: whole-cell, CHO cells, WT TREK-1, mean ± s.e.m; for IC50: read-out: half-maximal inhibition concentration (IC50), TREK-1
T3 construct: expressed in transfected cells; host or cells: CHO cells, transient transfection
T3 sequence (O95069 1-411 isoform O95069-2): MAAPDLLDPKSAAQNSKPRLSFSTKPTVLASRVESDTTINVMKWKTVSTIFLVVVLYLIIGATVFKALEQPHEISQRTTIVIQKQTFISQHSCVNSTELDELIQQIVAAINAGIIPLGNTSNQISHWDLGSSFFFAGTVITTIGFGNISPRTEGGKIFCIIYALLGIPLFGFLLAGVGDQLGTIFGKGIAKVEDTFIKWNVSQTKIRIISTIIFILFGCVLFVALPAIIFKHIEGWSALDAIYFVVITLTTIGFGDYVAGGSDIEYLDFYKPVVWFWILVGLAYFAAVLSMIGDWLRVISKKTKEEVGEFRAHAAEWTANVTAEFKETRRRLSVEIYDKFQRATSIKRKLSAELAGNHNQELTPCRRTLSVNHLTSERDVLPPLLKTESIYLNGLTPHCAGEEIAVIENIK
Source text: as §1, §2, §3, §4, §5

TREK-1 [2] = test system: TREK-1; parameters: method as in earlier work; conditions: ref [2] Borsotto M, et al. (2015); cited from earlier work
I110D TREK-1 mutant = test system: I110D TREK-1 mutant; parameters: method as in PMID 25409575; conditions: ref [22]; cited from earlier work
TREK-2 [3] = test system: TREK-2; parameters: method as in PMID 25409575, PMID 18417474, PMID 12606773, PMID 16513667; conditions: binds D135; ref [22]-[25]; cited from earlier work
TREK-1 [4] = test system: TREK-1; parameters: method as in Braun et al. [22]; conditions: ref Braun et al. [22]; cited from earlier work
TASK-3 = test system: TASK-3; parameters: method as in PMID 25409575, PMID 18417474, PMID 12606773, PMID 16513667; conditions: binds E70; ref [22]-[25]; cited from earlier work
mice = test: Forced swimming test; type: in vivo, Male C57BL/6 mice; conditions: chronic i.p. administration 10 days; TKDC 0.5, 1, 5 mg kg-1; fluoxetine 10 mg kg-1; vs vehicle
Procedure: Male C57BL/6 mice, aged 8 weeks (weighing 18–20 g) were used for acute and chronic drug administration and behavioral tests. The mice were housed four per cage under a 12-h light–dark cycle. Mice were raised under stable conditions with food and water ad libitum. All animal studies and experimental procedures were approved by the Animal Care Committees of the Shanghai Institute of Materia Medica, Chinese Academy of Sciences, and experiments were carried out in accordance with EU Directive 2010/63/EU on the protection of animals used for scientific purposes. […] The mice were removed to a sound-attenuating testing room 3–4 h before testing. The behavioral tests were carried out 30 min and 24 h after acute and chronic drugs administration, respectively.
The mice were performed under normal light. The apparatus was a transparent Plexiglas cylinder with 30 cm height × 10 cm diameter and the water temperature at 23–25 °C were set to prevent mice from touching the bottom with their limbs. Mice were allowed to swim for 8 min, and their activity was videotaped. There was an extra 15-min swimming in the previous day. The duration of immobility defined as floating or remaining motionless was assessed. To avoid extremely active at the beginning of swimming, the first 2 min of swimming was also excluded as the tail suspension test. […]

TREK channels = conditions: ref [7], [16]; cited from earlier work

[Cs+] [cesium ion]
sensitivity of K2P channels to classical potassium channel pore blockers (K2P channels): insensitivity

COc1ccccc1C(=O)Nc1cc(C(C)C)ccc1O [TKN1]
IC50 (TRAAK): 15.7 ± 3.1 µM | IC50 (TREK-2 [1]): 4.4 ± 1 µM | IC50 (TREK-1 channel): 6.5 ± 1.7 µM

Nc1ccncc1 [4-aminopyridine]
sensitivity of K2P channels to classical potassium channel pore blockers (K2P channels): insensitivity

spadin
effect on TREK-1 (TREK-1 [2]): specifically blocks the TREK-1

CC[N+](CC)(CC)CC [tetraethylammonium]
sensitivity of K2P channels to classical potassium channel pore blockers (K2P channels): insensitivity

Cc1cc(NC(=O)c2cccs2)cc(-c2nc3ccccc3o2)c1O [TKN2]
IC50 (TRAAK): 10.3 ± 1.5 µM | IC50 (TREK-2 [1]): 1.7 ± 0.8 µM | IC50 (TREK-1 channel): 3.8 ± 0.6 µM

N.N.N.N.N.N.N.N.N.N.N.N.N.N.[Cl-].[Cl-].[Cl-].[Cl-].[Cl-].[Cl-].[O-2].[O-2].[Ru+3].[Ru+3].[Ru+4] [ruthenium red]
effect on I110D TREK-1 mutant (I110D TREK-1 mutant): inhibits | effect on TREK-2 (TREK-2 [3]): inhibit | sensitivity of TREK-1 (TREK-1 [4]): not sensitive | effect on TASK-3 (TASK-3): inhibit

CNCCC(Oc1ccc(C(F)(F)F)cc1)c1ccccc1 (centres unmarked) [fluoxetine, reference compound]
immobility in the forced swimming test (mice): did not show antidepressant effects | effect on TREK channels (TREK channels): can also inhibit TREK channels

O=C(CNc1ccc(Cl)cc1)N1CCc2ccccc2C1 [28NH, 2-((4-chlorophenyl)amino)-1-(3,4-dihydroisoquinolin-2(1H)-yl)ethanone]
IC50 for TRAAK relative to the value obtained with TKDC (TRAAK; 28NH vs TKDC): almost sevenfold lower | IC50 (TRAAK): 11.8 ± 2.1 µM | IC50, TREK-2 (TREK-2 [1]): comparable to those observed for TKDC-induced inhibitions | half-maximal inhibition concentration (IC50), TREK-1 (TREK-1 channel): comparable to those observed for TKDC-induced inhibitions
